Laboratory results published in patent US7745377B2, “Labeled peptides, proteins and antibodies and processes and intermediates useful for their preparation” (priority 2000, dated 2010).

B1: mero-CBD: cdc42 binding domain of WASP (amino acids 201 to 321) conjugated to the merocyanine dye shown in FIG. 11 (conjugate)
chain: DIQNPDITSSRYRGLPAPGPSPADKKRSGKKKISKADIGAPSGFKHVSHVGWDPQNGFDVNNLDPDLRSLCSRAGISEAQLTDAETSKLIYDFIEDQGGLEAVRQEMRRQEPLPPPPPPSHHHHHH

Key:
[1] = Spectral data of merocyanine dyes (absorbance and fluorescence spectra); type: physicochemical; set-up: Absorption Maximum / Emission Maximum: unit not given here; settings: n-butanol
Experimental: Absorbance spectra were recorded on Hewlett-Packard HP8452 diode array spectrophotometer and fluorescence spectra were recorded on SPEX Fluorolog 2 spectrometer.

Rac1 = molecular target: T1, Rac1 (Homo sapiens, UniProt P63000); assay: Fluorescence of mero-CBD with activated Rac1; type: binding; settings: Rac1 pre-equilibrated with GTPγS
T1 construct: 6His; made in house
Experimental: (§1) Analyses of the solvatochromic activation indicator—A solution of mero-CBD (300 nM) in assay buffer was mixed 1:1 (v/v) with solutions of cdc42 (concentration as indicated), pre-equilibrated with 10 mM GDP or GTPγS as described in Knaus, U. G., Heyworth, P. G., Kinsella, B. T., Curnutte, J. T., and Bokoch, G. M. (1992) J. Biol. Chem. 267, 23575-23582. Emission wavelength of 630 nm and excitation wavelength of 600 nm were used to acquire excitation and emission spectra, respectively. For nucleotide dependence, cdc42 (500 nM) was pre-incubated with varying concentrations of GTPγS (1 to 500 nM). Rac1 and RhoA GTPases were pre-equilibrated with GTP […]S in the same manner.
(§2) Fluorescence increase as a measure of CBD-cdc42 interaction—The functionality and specificity of mero-CBD was characterized by measuring fluorescence in the presence of saturating amounts of cdc42-GDP or cdc42-GTPγS. […] Negligible increase (<5%) was also observed in the presence of activated Rac1. No effect on the mero-CBD fluorescence was observed when RhoA-GTPγS was present. Furthermore, even in the presence of excess of activated Rac1 and RhoA, GDP- and GTPγS-bound forms of cdc42 were easily distinguished by CBD-A4C fluorescence (data not shown).

cdc42 = molecular target: T2, cdc42 (Homo sapiens, UniProt P60953); assay: Fluorescence of mero-CBD solvatochromic activation indicator with cdc42; type: binding; settings: for increase of fluorescence intensity on binding activated cdc42: cdc42-GTPγS, excitation and emission maxima
T2 construct: 6His; made in house
T2 sequence (P60953 whole entry, species assumed): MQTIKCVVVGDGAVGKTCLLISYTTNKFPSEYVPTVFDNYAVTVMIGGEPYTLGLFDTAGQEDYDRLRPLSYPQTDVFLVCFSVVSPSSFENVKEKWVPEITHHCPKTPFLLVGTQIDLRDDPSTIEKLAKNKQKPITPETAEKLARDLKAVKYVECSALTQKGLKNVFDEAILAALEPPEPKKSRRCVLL
Experimental: as §1, §2

RhoA = molecular target: T3, RhoA (Homo sapiens, UniProt P61586); assay: Fluorescence of mero-CBD with RhoA-GTPγS; type: binding; settings: RhoA-GTPγS present
T3 construct: 6His; made in house
T3 sequence (P61586 whole entry, species assumed): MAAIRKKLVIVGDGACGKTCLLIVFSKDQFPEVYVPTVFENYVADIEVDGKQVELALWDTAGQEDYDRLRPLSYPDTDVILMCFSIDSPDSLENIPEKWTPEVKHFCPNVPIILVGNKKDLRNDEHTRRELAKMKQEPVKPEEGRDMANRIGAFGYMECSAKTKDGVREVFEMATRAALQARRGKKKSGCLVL
Experimental: as §1, §2

Row | Molecule | Absorption Maximum [1] | Emission Maximum [1] | Extinction coefficient (*10^−3) [1] | Quantum Yield [1] | fluorescence increase in presence of activated Rac1 (Rac1) [%] | increase of fluorescence intensity on binding activated cdc42 (cdc42) | increase of fluorescence intensity on binding activated cdc42 (cdc42; listed as CBD biosensor) | fluorescence increase in presence of cdc42-GDP (cdc42; saturating cdc42-GDP) | effect on mero-CBD fluorescence of RhoA-GTPγS (RhoA)
1 | O=C1/C(=C/C=C/C=C2/Sc3ccccc3N2CCCS(=O)(=O)[O-])S(=O)(=O)c2ccccc21.[Na+] [Compound 2] | 603 | 623 | 100 | 0.10 | – | – | – | – | –
2 | CC1(C)/C(=C/C=C/C=C2/C(=O)c3ccccc3S2(=O)=O)N(CCCS(=O)(=O)[O-])c2ccccc21.[Na+] [Compound 3] | – | – | 120 | 0.17 | – | – | – | – | –
3 | CC1(C)/C(=C/C=C/C=C2/C(=O)c3ccccc3C2=C(C#N)C#N)N(CCCS(=O)(=O)[O-])c2ccccc21.[Na+] [Compound 4] | – | – | 80 | 0.10 | – | – | – | – | –
4 | B1 | – | – | – | – | < 5 | Approximately 3.5 fold | up to 3.5 fold | not cdc42-GDP | No effect
